Test results taken from US12258328B2, “6-membered heteroaryl-containing aminopyridine compounds as EGFR inhibitors” (YUHAN CORPORATION, priority 2021, dated 2025).
Like-named read-outs stand apart in the source and are kept apart here.

What was measured:
[1] = molecular target: EGFR del19/T790M/C797S (Homo sapiens, UniProt P00533, C797S/DEL746-750/T790M); assay: Biochemical EGFR kinase assay (Lance Ultra TR-FRET), triple mutant del19/T790M/C797S
In short: (§1)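 In this biochemical assay, phosphorylation after a one-hour room-temperature reaction was detected with europium-labelled anti-phosphopeptide antibody at 2 nM final concentration.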

[2] = molecular target: EGFR L858R/C797S (Homo sapiens, UniProt P00533, C797S/L858R); assay: Biochemical EGFR kinase assay (Lance Ultra TR-FRET), double mutant L858R/C797S
In short: as §1

[3] = molecular target: EGFR del19/C797S (Homo sapiens, UniProt P00533, C797S/DEL746-750); assay: Biochemical EGFR kinase assay (Lance Ultra TR-FRET), double mutant del19/C797S
In short: as §1

[4] = molecular target: EGFR wildtype (Homo sapiens, UniProt P00533); assay: Biochemical EGFR kinase assay (Lance Ultra TR-FRET), wildtype
In short: as §1

[5] = molecular target: EGFR L858R/T790M/C797S (Homo sapiens, UniProt P00533, C797S/L858R/T790M); assay: Biochemical EGFR kinase assay (Lance Ultra TR-FRET), triple mutant L858R/T790M/C797S
In short: as §1

[6] = Km ATP, read-out: IC50 del19/T790M/C797S (nM) Km ATP
[7] = Km ATP, read-out: IC50 L858R/C797S (nM) Km ATP
[8] = Km ATP, read-out: IC50 del19/C797S (nM) Km ATP
[9] = Km ATP, read-out: IC50 WT (nM) Km ATP
[10] = Km ATP, read-out: IC50 L858R/T790M/C797S (nM) Km ATP
[11] = ATP at Km, read-out: IC50 del19/T790M/C797S, Km ATP
[12] = ATP at Km, read-out: IC50 L858R/C797S, Km ATP
[13] = ATP at Km, read-out: IC50 del19/C797S, Km ATP
[14] = ATP at Km, read-out: IC50 WT, Km ATP
[15] = ATP at Km, read-out: IC50 L858R/T790M/C797S, Km ATP
[16] = IC50 del19/T790M/C797S (nM) 100 μM ATP, 100 μM ATP
[17] = IC50 L858R/C797S (nM) 100 μM ATP, 100 μM ATP
[18] = IC50 del19/C797S (nM) 100 μM ATP, 100 μM ATP
[19] = IC50 WT (nM) 100 μM ATP, 100 μM ATP
[20] = IC50 L858R/T790M/C797S (nM) 100 μM ATP, 100 μM ATP
[21] = IC50 del19/T790M/C797S, 100 μM ATP
[22] = IC50 L858R/T790M/C797S, 100 μM ATP

Sequence of EGFR del19/T790M/C797S (P00533 with tags, fused parts or gaps DEL746-750/T790M/C797S): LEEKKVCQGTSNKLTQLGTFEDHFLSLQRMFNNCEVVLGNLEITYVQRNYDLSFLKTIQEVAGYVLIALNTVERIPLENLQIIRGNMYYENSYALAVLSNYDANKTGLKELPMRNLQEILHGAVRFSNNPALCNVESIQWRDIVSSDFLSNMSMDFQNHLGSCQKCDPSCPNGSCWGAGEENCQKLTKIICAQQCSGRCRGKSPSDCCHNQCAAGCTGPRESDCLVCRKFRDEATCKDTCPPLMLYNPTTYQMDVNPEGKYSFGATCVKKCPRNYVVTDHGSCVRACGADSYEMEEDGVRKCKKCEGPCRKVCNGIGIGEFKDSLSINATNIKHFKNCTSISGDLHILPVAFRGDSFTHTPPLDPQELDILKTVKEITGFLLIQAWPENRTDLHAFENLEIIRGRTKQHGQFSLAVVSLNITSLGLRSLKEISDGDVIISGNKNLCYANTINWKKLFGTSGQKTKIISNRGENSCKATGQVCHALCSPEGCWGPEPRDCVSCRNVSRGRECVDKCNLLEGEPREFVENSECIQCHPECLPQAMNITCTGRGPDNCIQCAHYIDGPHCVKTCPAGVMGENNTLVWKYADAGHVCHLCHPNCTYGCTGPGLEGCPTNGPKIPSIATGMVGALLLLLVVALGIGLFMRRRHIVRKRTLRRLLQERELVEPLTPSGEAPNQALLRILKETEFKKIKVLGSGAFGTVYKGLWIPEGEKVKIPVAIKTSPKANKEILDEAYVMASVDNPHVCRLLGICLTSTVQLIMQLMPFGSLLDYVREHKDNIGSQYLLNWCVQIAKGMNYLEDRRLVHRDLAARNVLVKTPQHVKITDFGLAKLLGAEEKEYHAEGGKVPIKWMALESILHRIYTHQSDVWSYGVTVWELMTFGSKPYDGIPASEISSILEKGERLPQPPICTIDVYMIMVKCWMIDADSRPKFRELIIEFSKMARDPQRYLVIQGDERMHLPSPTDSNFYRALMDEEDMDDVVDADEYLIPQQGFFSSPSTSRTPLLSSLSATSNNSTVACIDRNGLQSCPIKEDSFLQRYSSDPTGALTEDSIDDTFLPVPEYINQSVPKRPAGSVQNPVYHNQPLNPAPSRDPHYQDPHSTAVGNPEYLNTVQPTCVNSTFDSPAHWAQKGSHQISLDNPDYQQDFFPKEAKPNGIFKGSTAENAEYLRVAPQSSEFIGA
Sequence of EGFR L858R/C797S (P00533 25-1210 C797S/L858R): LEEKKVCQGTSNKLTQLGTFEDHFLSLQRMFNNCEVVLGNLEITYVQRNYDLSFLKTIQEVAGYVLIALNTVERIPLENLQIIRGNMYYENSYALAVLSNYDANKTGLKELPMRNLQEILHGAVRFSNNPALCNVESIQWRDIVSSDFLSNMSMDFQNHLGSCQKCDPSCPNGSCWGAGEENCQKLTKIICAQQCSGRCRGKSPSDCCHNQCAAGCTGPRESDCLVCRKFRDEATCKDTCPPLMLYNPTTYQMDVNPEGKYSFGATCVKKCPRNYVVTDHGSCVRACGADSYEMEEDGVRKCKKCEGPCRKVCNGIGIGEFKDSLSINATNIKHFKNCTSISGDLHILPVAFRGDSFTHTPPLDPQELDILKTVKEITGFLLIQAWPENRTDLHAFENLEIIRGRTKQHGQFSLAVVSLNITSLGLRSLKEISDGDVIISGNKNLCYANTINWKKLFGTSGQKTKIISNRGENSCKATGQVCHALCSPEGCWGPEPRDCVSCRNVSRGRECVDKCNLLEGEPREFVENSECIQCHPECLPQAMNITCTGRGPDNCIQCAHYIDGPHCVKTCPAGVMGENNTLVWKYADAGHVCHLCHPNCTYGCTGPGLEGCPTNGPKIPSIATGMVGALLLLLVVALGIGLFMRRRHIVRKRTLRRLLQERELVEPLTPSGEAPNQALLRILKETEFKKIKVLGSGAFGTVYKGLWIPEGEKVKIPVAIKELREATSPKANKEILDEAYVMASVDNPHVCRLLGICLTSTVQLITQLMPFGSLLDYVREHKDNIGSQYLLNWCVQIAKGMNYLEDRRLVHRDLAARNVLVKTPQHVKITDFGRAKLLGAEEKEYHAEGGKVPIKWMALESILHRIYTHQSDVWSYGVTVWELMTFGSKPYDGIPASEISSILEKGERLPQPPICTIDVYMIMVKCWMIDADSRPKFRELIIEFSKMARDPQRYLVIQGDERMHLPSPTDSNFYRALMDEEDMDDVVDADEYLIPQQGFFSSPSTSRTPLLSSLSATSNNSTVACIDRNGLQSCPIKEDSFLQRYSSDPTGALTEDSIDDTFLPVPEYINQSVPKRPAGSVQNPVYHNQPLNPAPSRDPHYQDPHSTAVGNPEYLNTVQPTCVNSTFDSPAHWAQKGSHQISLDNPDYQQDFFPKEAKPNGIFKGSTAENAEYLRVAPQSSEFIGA
Sequence of EGFR del19/C797S (P00533 with tags, fused parts or gaps DEL746-750/C797S): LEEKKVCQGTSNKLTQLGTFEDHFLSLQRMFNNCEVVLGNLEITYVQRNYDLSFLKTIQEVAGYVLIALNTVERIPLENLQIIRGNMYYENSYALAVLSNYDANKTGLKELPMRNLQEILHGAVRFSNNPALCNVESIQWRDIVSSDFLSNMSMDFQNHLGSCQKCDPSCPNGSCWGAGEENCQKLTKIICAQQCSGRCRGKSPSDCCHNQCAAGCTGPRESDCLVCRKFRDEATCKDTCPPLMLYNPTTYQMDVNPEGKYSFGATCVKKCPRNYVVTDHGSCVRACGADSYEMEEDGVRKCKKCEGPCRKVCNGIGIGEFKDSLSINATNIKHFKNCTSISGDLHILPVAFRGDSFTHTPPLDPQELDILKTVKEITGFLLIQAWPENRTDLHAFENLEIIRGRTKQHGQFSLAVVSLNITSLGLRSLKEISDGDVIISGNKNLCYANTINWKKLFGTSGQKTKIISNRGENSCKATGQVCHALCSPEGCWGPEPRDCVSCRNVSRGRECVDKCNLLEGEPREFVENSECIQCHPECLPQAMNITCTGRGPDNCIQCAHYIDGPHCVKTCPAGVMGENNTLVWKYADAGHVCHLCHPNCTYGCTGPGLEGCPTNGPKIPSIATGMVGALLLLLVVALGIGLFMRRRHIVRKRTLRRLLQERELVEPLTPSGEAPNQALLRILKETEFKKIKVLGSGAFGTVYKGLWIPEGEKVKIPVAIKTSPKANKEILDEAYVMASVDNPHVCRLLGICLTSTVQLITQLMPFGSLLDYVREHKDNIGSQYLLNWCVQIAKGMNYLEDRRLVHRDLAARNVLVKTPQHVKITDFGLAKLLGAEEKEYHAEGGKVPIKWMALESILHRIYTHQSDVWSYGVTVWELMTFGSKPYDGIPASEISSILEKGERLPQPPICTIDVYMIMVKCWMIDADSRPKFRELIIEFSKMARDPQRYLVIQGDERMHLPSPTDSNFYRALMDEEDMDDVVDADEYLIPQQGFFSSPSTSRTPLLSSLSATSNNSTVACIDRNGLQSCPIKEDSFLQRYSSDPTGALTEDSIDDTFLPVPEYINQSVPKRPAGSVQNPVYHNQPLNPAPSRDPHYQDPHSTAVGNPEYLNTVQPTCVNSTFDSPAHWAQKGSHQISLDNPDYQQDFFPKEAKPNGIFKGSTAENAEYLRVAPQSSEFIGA
Sequence of EGFR wildtype (P00533 25-1210): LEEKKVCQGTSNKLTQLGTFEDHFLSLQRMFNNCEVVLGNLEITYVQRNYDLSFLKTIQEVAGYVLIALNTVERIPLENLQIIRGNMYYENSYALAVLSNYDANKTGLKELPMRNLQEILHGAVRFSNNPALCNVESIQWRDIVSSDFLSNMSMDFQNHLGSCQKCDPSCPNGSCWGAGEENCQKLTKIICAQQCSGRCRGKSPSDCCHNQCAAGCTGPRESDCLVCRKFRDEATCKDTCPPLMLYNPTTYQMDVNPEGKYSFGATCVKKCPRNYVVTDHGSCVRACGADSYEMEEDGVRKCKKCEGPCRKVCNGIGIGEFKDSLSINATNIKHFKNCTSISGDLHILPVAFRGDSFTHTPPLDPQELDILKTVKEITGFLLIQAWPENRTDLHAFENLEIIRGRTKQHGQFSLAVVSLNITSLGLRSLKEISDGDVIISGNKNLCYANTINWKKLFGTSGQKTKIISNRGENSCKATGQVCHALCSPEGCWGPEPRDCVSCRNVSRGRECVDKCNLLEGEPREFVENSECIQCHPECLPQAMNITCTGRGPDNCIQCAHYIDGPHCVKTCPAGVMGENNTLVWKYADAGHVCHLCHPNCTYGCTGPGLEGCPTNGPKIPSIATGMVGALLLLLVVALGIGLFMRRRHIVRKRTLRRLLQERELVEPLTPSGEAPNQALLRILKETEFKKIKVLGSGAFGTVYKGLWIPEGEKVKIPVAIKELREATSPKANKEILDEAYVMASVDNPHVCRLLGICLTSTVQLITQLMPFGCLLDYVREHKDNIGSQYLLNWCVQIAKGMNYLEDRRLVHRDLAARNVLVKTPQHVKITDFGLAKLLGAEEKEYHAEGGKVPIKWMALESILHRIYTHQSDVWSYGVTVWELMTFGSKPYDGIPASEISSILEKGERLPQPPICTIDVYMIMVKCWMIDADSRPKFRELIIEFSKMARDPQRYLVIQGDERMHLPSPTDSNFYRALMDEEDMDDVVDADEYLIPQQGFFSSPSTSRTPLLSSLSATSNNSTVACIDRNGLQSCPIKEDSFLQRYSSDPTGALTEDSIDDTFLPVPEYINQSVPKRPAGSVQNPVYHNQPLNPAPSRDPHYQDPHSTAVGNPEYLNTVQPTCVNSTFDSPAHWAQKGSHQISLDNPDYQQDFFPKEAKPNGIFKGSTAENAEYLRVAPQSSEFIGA

Row | SMILES | IC50 [1, 6] [nM] | IC50 [2, 7] [nM] | IC50 [3, 8] [nM] | IC50 [4, 9] [nM] | IC50 [5, 10] [nM] | IC50 [1, 11] [nM] | IC50 [2, 12] [nM] | IC50 [3, 13] [nM] | IC50 [4, 14] [nM] | IC50 [5, 15] [nM] | IC50 [1, 16] [nM] | IC50 [2, 17] [nM] | IC50 [3, 18] [nM] | IC50 [4, 19] [nM] | IC50 [5, 20] [nM] | IC50 [1, 21] [nM] | IC50 ([2]; IC50 L858R/C797S, 100 μM ATP) [nM] | IC50 ([3]; IC50 del19/C797S, 100 μM ATP) [nM] | IC50 ([4]; IC50 WT, 100 μM ATP) [nM] | IC50 [5, 22] [nM]
1 | CN1CCN(Cc2ccnc(-c3cnc(Nc4ccnc(-c5cnn(S(=O)(=O)C6CC6)c5)n4)cc3N[C@H]3CC[C@@](C)(O)CC3)c2)CC1 [Example 55, (1s,4s)-4-((6′-((2-(1-(Cyclopropylsulfonyl)-1H-pyrazol-4-yl)pyrimidin-4-yl)amino)-4-((4-methylpiperazin-1-yl)methyl)-[2,3′-bipyridin]-4′-yl)amino)-1-methylcyclohexan-1-ol] | 0.7 | 0.3 | 0.5 | 1.9 |  |  |  |  |  |  | 1.7 | 1 | 1.1 | 754 | 0.4 |  |  |  |  | 
2 | CC(C)(O)[C@H]1CC[C@@H](Nc2cc(Nc3ccnc(-c4cnn(S(=O)(=O)C5CC5)c4)n3)ncc2-c2cnc(N3CCC(F)(F)CC3)cn2)CC1 [Example 72, 2-((1s,4s)-4-((2-((2-(1-(Cyclopropylsulfonyl)-1H-pyrazol-4-yl)pyrimidin-4-yl)amino)-5-(5-(4,4-difluoropiperidin-1-yl)pyrazin-2-yl)pyridin-4-yl)amino)cyclohexyl)propan-2-ol] | 10.7 | 61.4 | 22.4 | 84.2 | 1.7 |  |  |  |  |  | 12.7 | 2430 | 21.7 | > 10000 | 12.2 |  |  |  |  | 
3 | Cc1ccc(-c2cnc(Nc3ccnc(-c4cnn(S(=O)(=O)C5CC5)c4)n3)cc2N[C@H]2CC[C@@](C)(O)CC2)nc1 [Example 8, (1s,4s)-4-((6′-((2-(1-(Cyclopropylsulfonyl)-1H-pyrazol-4-yl)pyrimidin-4-yl)amino)-5-methyl-[2,3′-bipyridin]-4′-yl)amino)-1-methylcyclohexan-1-ol] | 0.4 | 0.4 | 0.4 | 1 | 0.1 |  |  |  |  |  | 0.2 | 6.3 | 0.7 | 8890 | 0.2 |  |  |  |  | 
4 | CC1(O)CCC(Nc2cc(Nc3ccnc(-c4cnn(S(=O)(=O)C5CC5)c4)n3)ncc2-c2cc(S(C)(=O)=O)ccn2)CC1 (stereo not shown) [Example 198, (1s,4s)-4-((6′-((2-(1-(Cyclopropylsulfonyl)-1H-pyrazol-4-yl)pyrimidin-4-yl)amino)-4-(methylsulfonyl)-[2,3′-bipyridin]-4′-yl)amino)-1-methylcyclohexan-1-ol] |  |  |  |  |  | 0.5 | 0.8 | 0.7 | 3.7 | 0.2 |  |  |  |  |  | 0.8 | 2.9 | 2.9 | > 10000 | 0.4
5 | C[C@]1(O)CC[C@@H](Nc2cc(Nc3ccnc(-c4cnn(S(=O)(=O)C5CC5)c4)n3)ncc2-c2ccccn2)CC1 [Example 35, (1s,4s)-4-((6′-((2-(1-(Cyclopropylsulfonyl)-1H-pyrazol-4-yl)pyrimidin-4-yl)amino)-[2,3′-bipyridin]-4′-yl)amino)-1-methylcyclohexan-1-ol] | 0.6 | 0.3 | 0.3 |  | 0.2 |  |  |  |  |  | 0.3 |  | 0.2 | 811 | 0.3 |  |  |  |  | 
6 | CN(C)CCNc1ccnc(-c2cnc(Nc3ccnc(-c4cnn(S(=O)(=O)C5CC5)c4)n3)cc2N[C@H]2CC[C@@](C)(O)CC2)c1 [Example 276, (1s,4s)-4-((6′-((2-(1-(Cyclopropylsulfonyl)-1H-pyrazol-4-yl)pyrimidin-4-yl)amino)-4-((2-(dimethylamino)ethyl)amino)-[2,3′-bipyridin]-4′-yl)amino)-1-methylcyclohexan-1-ol] |  |  |  |  |  | 0.8 | 0.7 | 0.3 | 2.9 | 0.2 |  |  |  |  |  | 1.1 | 2.3 | 0.7 | 2530 | 0.5
7 | C[C@]1(O)CC[C@@H](Nc2cc(Nc3ccnc(-c4cnn(S(=O)(=O)C5CC5)c4)n3)ncc2-c2ccc(OCCN3CCC3)cn2)CC1 [Example 290, (1s,4s)-4-((5-(2-(Azetidin-1-yl)ethoxy)-6′-((2-(1-(cyclopropylsulfonyl)-1H-pyrazol-4-yl)pyrimidin-4-yl)amino)-[2,3′-bipyridin]-4′-yl)amino)-1-methylcyclohexan-1-ol] |  |  |  |  |  | 0.4 | 0.1 | 0.2 | 0.5 | 0.1 |  |  |  |  |  | 0.4 | 0.6 | 0.3 | 118 | 0.2

Now from value to compound:

Row | IC50 [1, 6] [nM] | IC50 [2, 7] [nM] | IC50 [3, 8] [nM] | IC50 [4, 9] [nM] | IC50 [5, 10] [nM] | IC50 [1, 11] [nM] | IC50 [2, 12] [nM] | IC50 [3, 13] [nM] | IC50 [4, 14] [nM] | IC50 [5, 15] [nM] | IC50 [1, 16] [nM] | IC50 [2, 17] [nM] | IC50 [3, 18] [nM] | IC50 [4, 19] [nM] | IC50 [5, 20] [nM] | IC50 [1, 21] [nM] | IC50 ([2]; IC50 L858R/C797S, 100 μM ATP) [nM] | IC50 ([3]; IC50 del19/C797S, 100 μM ATP) [nM] | IC50 ([4]; IC50 WT, 100 μM ATP) [nM] | IC50 [5, 22] [nM] | SMILES
8 | 0.9 | 15.6 | 32.1 | 34.2 | 0.6 |  |  |  |  |  |  |  |  |  |  |  |  |  |  |  | C[C@]1(O)CC[C@@H](Nc2cc(Nc3ccnc(-c4cnn(S(=O)(=O)C5CC5)c4)n3)ncc2-c2cnc(C(F)(F)F)cn2)CC1 [Example 134, (1s,4s)-4-((2-((2-(1-(Cyclopropylsulfonyl)-1H-pyrazol-4-yl)pyrimidin-4-yl)amino)-5-(5-(trifluoromethyl)pyrazin-2-yl)pyridin-4-yl)amino)-1-methylcyclohexan-1-ol]
9 | 0.1 | 1.1 | 1 | 7.9 | 0.2 |  |  |  |  |  |  |  |  |  |  |  |  |  |  |  | CN1CCC(Oc2ccc(-c3cnc(Nc4ccnc(-c5cnn(S(=O)(=O)C6CC6)c5)n4)cc3NC3CCC(F)(F)C3)nc2)CC1 (stereo not shown) [Example 143, N^6′-(2-(1-(Cyclopropylsulfonyl)-1H-pyrazol-4-yl)pyrimidin-4-yl)-N^4′-(3,3-difluorocyclopentyl)-5-((1-methylpiperidin-4-yl)oxy)-[2,3′-bipyridine]-4′,6′-diamine]
10 |  |  |  |  |  | 0.3 | 1.1 | 3.2 | 36 | 0.1 |  |  |  |  |  |  |  |  |  |  | CN1CCC(Oc2ccc(-c3cnc(Nc4ccnc(-c5cnn(S(=O)(=O)C6CC6)c5)n4)cc3N[C@H]3CC[C@@H](F)CC3)nn2)CC1 [Example 270, N^2-(2-(1-(Cyclopropylsulfonyl)-1H-pyrazol-4-yl)pyrimidin-4-yl)-N^4-((1s,4s)-4-fluorocyclohexyl)-5-(6-((1-methylpiperidin-4-yl)oxy)pyridazin-3-yl)pyridine-2,4-diamine]
11 | 2.6 | 2.3 | 28.6 | 22 | 0.7 |  |  |  |  |  |  |  |  |  |  |  |  |  |  |  | O=S(=O)(C1CC1)n1cc(-c2nccc(Nc3cc(N[C@H]4CC[C@@H](F)CC4)c(-c4ccc(N5CCOCC5)cn4)cn3)n2)cn1 [Example 123, N^6′-(2-(1-(Cyclopropylsulfonyl)-1H-pyrazol-4-yl)pyrimidin-4-yl)-N^4′-((1s,4s)-4-fluorocyclohexyl)-5-morpholino-[2,3′-bipyridine]-4′,6′-diamine]
12 | 0.1 | 0.1 | 0.1 | 0.4 | 0.04 |  |  |  |  |  | 0.1 | 0.3 | 0.1 | 384 | 0.04 |  |  |  |  |  | CN(C)CCOc1cnc(-c2cnc(Nc3ccnc(-c4cnn(S(=O)(=O)C5CC5)c4)n3)cc2N[C@H]2CC[C@@H](CO)CC2)cn1 [Example 116, ((1s,4s)-4-((2-((2-(1-(Cyclopropylsulfonyl)-1H-pyrazol-4-yl)pyrimidin-4-yl)amino)-5-(5-(2-(dimethylamino)ethoxy)pyrazin-2-yl)pyridin-4-yl)amino)cyclohexyl)methanol]
